Assay results reported in publication PMC10766610, “DCAF1-based PROTACs with activity against clinically validated targets overcoming intrinsic- and acquired-degrader resistance” (Nature Communications, 2024).
Where two headings read alike, the source gives them in different places.

What was measured:
[1] = molecular target: T1, DCAF1(WDR) (Homo sapiens, UniProt Q9Y4B6, E1398S); experiment: SPR, surface immobilized DCAF1(WDR), binary compound binding; conditions: for Kd: binary, compound alone, spread in brackets, read-out: SPR KD
T1 construct: His6 (C); made in house; host or cells: Sf9 insect cells (baculovirus), co-expressed with BirA

[2] = molecular target: T1, DCAF1(WDR); experiment: DCAF1 TR-FRET competition assay, standard binary format; type: binding; conditions: for IC50: binary
Procedure: Competition assay conditions consist of 20 µL total volume in white 384-well plates (Greiner), in 30 mM phosphate buffer pH 7.4 containing 140 mM NaCl, 0.01% Tween20, 1 mM TCEP and 1% final DMSO. Tested compounds at 14 different concentrations were pre-incubated at 22 °C for 30 min with a large excess of 10 µM human BTK (G389-S659) or 10 µM human BRD9-BD(130-250) in the cooperative assay or with buffer in standard binary assay. […] Samples were then incubated at 22 °C for 30 min before reading using a Tecan infinite M-1000 or PheraStar FSX (excitation 340 nm, emission 490 and 520 nm). DCAF1 protein was omitted in the negative control. IC50 fitting was carried out using an in-house developed software (Novartis Helios software application, unpublished, a publicly available alternative would be e.g., Graphpad Prism) using the methods described by Fomenko et al.[93] (regression algorithms for nonlinear dose-response curve fitting). Following normalization of activity values for the wells to % inhibition (% inhibition = [(high control-sample)/(high control-low control)] × 100). Data analysis could also be carried out using GraphPad Prism without prior normalization. The reported IC50 values are the average of at least two independent experiments.

[3] = molecular target: T2, BRD9 (Homo sapiens, UniProt Q9H8M2); experiment: Rescue of DBr-1 mediated BRD9 degradation by co-treatment, BRD9-HiBiT HEK293 cells; type: cell-based; design: host or cells: HEK293/BRD9-HiBiT knock-in; clone and BRD9-HiBiT/CAS9/FF clone; conditions: (13) 1 µM, OICR8268 10 µM, BI-9564 10 µM
T2 sequence (Q9H8M2 1-597): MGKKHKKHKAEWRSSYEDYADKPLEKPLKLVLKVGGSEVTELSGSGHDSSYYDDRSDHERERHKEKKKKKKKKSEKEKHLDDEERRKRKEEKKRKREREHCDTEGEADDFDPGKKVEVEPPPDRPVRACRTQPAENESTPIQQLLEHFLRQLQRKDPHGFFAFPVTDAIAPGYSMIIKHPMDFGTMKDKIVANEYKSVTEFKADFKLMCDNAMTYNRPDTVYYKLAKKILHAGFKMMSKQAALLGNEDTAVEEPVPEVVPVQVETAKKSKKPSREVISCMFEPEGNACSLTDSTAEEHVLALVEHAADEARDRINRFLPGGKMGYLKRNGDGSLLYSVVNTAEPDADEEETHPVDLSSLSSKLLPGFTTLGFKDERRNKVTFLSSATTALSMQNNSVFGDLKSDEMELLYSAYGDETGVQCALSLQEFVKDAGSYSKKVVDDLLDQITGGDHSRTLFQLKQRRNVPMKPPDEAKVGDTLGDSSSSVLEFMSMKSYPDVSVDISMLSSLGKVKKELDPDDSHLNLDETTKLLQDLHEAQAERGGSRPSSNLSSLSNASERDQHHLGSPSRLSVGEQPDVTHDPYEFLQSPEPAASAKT
Procedure: Supplementary figure 4. Competition experiments with DBr-1 and DBr-1-N […]
a) BRD9-HiBiT signal detection of samples pretreated with either DMSO, 10µM OICR-8268, 1µM […]
Data represents average ± standard deviation from n=3 replicates. DC50 values and […]
maximal observed degradation are shown below. […]
b) Cell titer Glow assay of BRD9 HiBiT cells. Cells pretreated with either DMSO, 10µM OICR-8268, […]
Data represents average ± standard deviation from n=3 replicates.
Source data are provided as a Source Data file

[4] = Viability by FSC/SSC gate (flow cytometry) in TMD8 BTK-GFP/mCh cells; type: cell-based, human; design: Max dose w/ Gating Viability >25%: unit: µM; conditions: human, TMD8 BTK-GFP/mCh cells, TMD8 BTK-GFP/mCh, 24 h
Procedure: (§1) For flow cytometry measurements, 25,000 exponentially growing TMD8 BTK-GFP/mCh cells were plated in 100 μL of each well of a 96-well plate and grown for 24 h. Cells were then dosed with corresponding compounds and doses from 10 mM DMSO stock for 24 h, after which GFP and mCherry fluorescence was read with a Beckmann Coulter Cytoflex. For competition experiment, both compounds were added at the same time and dosed for 24 h. Cells were gated based on Forward & Side Scatter and selection for Single cells using SSC-A vs. SSC-H. Further, the population of viable cells was defined by the forward & side-scatter characteristics of DMSO-treated cells. […] Effects on viability were measured by the reduction of the percentage of cells included in this viable-population gate with increasing doses of compound tested. Degradation of BTK was calculated based on subtracting background (BG) fluorescence of parental TMD8 signal via (GFP-BG)/(mCherry-BG) of viable cells. Median ratios of three technical (different wells) replicates were used to calculate daily averages. Each compound dose–response was generated via three biological replicates (different days of experiment). Degradation curve parameters (DC50 & Abs. DC50 & max. Deg) were extracted using GraphPad Prism’s 4-parameter logistic curve fitting.
(§2) The viability window was determined by measuring the GI50 of viability based on the percentage of cells included in the viable gate and comparing it to the DC50 of degradation. The fold-change difference describing this window is [GI50 Viability / DC50 Degradation], where values above 1 indicate a positive (lower DC50 degradation than AC50 viability) window.

[5] = tested on: TMD8 BTK-GFP/mCh cells; experiment: as above; type: cell-based, human; design: Max dose w/ Gating Viability >25%: unit: µM; conditions: TMD8 BTK-GFP/mCh, 24 h
Procedure: as §1, §2

[6] = molecular target: BTK (Homo sapiens, UniProt Q06187); experiment: BTK-GFP degradation by flow cytometry in TMD8 BTK-GFP/mCh cells; type: cell-based; design: performed with full-length BTK and endogenous DCAF1; expressed in transfected cells; host or cells: TMD8 cells, lentiviral, blasticidin-selected (TMD8 BTK-GFP/mCh); conditions: TMD8 BTK-GFP/mCh, 24 h; for DC50: read-out: DC50 BTK-Degradation
Procedure: The bicistronic pLenti6 BTK-GFP-chysel-mCHERRY expression vector was cloned as described[92] using Gateway cloning with a pENTR-BTK plasmid lacking a STOP codon. TMD8 cells were then infected with lentiviral particles from this vector as described above and stably transfected cells were selected with blasticidin at a concentration of 10 μg/mL referred to as TMD8 BTK-GFP/mCh cells.
For flow cytometry measurements, 25,000 exponentially growing TMD8 BTK-GFP/mCh cells were plated in 100 μL of each well of a 96-well plate and grown for 24 h. Cells were then dosed with corresponding compounds and doses from 10 mM DMSO stock for 24 h, after which GFP and mCherry fluorescence was read with a Beckmann Coulter Cytoflex. For competition experiment, both compounds were added at the same time and dosed for 24 h. Cells were gated based on Forward & Side Scatter and selection for Single cells using SSC-A vs. SSC-H. Further, the population of viable cells was defined by the forward & side-scatter characteristics of DMSO-treated cells. To confirm cells outside of this population as non-viable, cells were plated and treated for 24 h, washed with PBS and stained for 30 min with two markers of early (Annexin-V) and late (LIVE/DEAD) apoptosis. Effects on viability were measured by the reduction of the percentage of cells included in this viable-population gate with increasing doses of compound tested. Degradation of BTK was calculated based on subtracting background (BG) fluorescence of parental TMD8 signal via (GFP-BG)/(mCherry-BG) of viable cells. Median ratios of three technical (different wells) replicates were used to calculate daily averages. Each compound dose–response was generated via three biological replicates (different days of experiment). Degradation curve parameters (DC50 & Abs. DC50 & max. Deg) were extracted using GraphPad Prism’s 4-parameter logistic curve fitting.

[7] = molecular target: T3, BRD7 (Homo sapiens, UniProt Q9NPI1); experiment: BRD7-HiBiT protein abundance luminescence assay in HEK293 cells; conditions: read-out: rel. DC50 (BRD7), 2 h
T3 sequence (Q9NPI1 1-651): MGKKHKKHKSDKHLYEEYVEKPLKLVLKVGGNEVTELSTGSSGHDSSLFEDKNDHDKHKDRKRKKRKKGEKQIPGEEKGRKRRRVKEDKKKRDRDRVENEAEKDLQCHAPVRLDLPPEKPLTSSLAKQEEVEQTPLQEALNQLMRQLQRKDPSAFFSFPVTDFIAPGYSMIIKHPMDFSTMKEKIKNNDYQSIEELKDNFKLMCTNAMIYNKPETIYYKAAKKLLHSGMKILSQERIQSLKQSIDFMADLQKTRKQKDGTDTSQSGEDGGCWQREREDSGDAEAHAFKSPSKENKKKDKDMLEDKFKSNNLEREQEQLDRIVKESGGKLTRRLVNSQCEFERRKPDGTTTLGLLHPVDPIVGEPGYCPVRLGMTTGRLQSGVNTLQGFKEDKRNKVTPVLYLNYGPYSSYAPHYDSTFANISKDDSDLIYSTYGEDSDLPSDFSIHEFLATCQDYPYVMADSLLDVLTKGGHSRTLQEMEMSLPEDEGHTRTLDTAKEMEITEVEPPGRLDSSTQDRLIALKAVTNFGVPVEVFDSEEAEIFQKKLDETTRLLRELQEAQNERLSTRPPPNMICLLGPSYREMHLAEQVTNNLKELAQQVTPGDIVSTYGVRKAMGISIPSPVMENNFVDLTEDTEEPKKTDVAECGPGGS
Text: HEK293/BRD9-HiBiT pools (PROMEGA # CS3023120) and HEK293/BRD7-HiBiT pools (PROMEGA # CS3023124) were purchased from Promega. We performed clonal selection for HEK293/BRD9-HiBiT cell line using single-cell sorting and screening for HiBiT expression using Nano-Glo HiBiT Lytic Detection System (Promega # N3030). The HEK293/BRD9-HiBiT clone and HEK293/BRD7-HiBiT pool to perform standard HiBiT assays.

[8] = compound alone, spread in brackets, read-out: TR-FRET Q. IC50

T1 sequence (Q9Y4B6 1073-1399 E1398S): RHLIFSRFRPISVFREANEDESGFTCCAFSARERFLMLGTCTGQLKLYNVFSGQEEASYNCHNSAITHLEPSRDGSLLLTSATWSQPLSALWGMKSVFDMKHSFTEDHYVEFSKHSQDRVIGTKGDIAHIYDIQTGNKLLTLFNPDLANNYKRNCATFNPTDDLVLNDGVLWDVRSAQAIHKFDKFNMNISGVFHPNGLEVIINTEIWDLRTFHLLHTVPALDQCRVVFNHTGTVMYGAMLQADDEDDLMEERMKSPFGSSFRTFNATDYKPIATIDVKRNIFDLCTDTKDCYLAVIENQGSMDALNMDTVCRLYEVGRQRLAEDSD
BTK, sequence (Q06187 2-659 limits assumed): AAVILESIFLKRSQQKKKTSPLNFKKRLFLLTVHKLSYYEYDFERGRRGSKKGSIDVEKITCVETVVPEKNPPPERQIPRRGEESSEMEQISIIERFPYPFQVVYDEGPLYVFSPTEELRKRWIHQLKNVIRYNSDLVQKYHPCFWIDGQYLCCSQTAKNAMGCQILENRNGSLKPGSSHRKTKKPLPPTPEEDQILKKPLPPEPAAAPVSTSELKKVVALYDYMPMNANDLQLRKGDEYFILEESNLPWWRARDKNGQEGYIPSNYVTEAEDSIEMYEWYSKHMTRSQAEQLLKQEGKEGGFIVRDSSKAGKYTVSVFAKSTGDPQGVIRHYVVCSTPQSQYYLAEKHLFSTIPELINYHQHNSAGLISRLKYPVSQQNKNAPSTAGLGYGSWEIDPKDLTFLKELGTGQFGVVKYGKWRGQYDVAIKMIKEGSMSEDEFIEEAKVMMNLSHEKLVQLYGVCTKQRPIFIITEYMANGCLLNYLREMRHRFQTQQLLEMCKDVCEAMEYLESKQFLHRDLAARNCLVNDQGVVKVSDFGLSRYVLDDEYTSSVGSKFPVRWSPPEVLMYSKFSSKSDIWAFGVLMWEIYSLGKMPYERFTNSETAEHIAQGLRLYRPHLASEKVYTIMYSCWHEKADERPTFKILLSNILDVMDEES

For `COc1cc(-c2cn(C)c(=O)c3cnccc23)c(OC)cc1CN1CCC(OCCCCCC(=O)N2CCN(c3ccc4c(NCCN(C)C)nc(C5(c6ccc(Cl)cc6)CCCCC5)nc4c3)CC2)CC1` [DBr-1-N], the “relative reduction in affinity compared to DBr-1, SPR” value [1] was 27 fold, the “relative reduction in affinity compared to DBr-1, TR-FRET” value [2] was 41 fold and the IC50 ([2]; read-out: IC50 in TR-FRET assays (response to reviewers)) was 812 nM.
For `NC(=O)C[C@H](NC(=O)c1c[nH]nc1-c1ccc(Cl)cc1F)c1ccc(F)c(Cl)c1` [OICR-8268], the “effect of co-treatment on DBr-1 mediated BRD9 degradation” value [3] was “did not affect the degradation efficacy of DBr-1”.
`CC(=O)NCCOCCOCCOCCOCCOCCOCCC(=O)N1CCN(c2ccc3c(NCCN)nc(C4(c5ccc(Cl)cc5)CCCC4)nc3c2)CC1` [compound 15] gave a Kd [1] of 20 nM and an IC50 [2, 8] of 20 nM.
Work on `C#CCOCC(=O)N1CCN(c2ccc3c(NCCN)nc(C4(c5ccc(Cl)cc5)CCCCC4)nc3c2)CC1` [compound 16] yielded a Kd [1] of 50 nM and an IC50 [2, 8] of 10 nM.
In the case of `Cc1c(NC(=O)c2ccc(C(C)(C)O)cc2F)cc(F)cc1-c1ncnc2[nH]c(-c3ccc(CN4CCC5(CCNCC5)CC4)cc3)cc12` [compound 18, reference compound], the GI50 at 24 h ([4]; read-out: Abs GI50) is reported as 9540 nM, the GI50 at 24 h ([4]; read-out: GI50) is reported as 7560 nM and the “Max dose w/ Gating Viability >25%” value [5] is reported as 25. It also gave a DC50 [6] of 7890 nM.
In the case of `Cc1c(NC(=O)N2CC(O)(CC(C)(C)C)C2)cc(F)cc1-c1ncnc2[nH]c(-c3cnn(CC(=O)N4CCC5(CCNCC5)CC4)c3)cc12` [compound 19], the GI50 at 24 h ([4]; read-out: GI50) is reported as greater than 25000 nM, the “Max dose w/ Gating Viability >25%” value [5] is reported as 25 and the “max. BTK degradation (%)” value [6] is reported as 0%. It also gave a DC50 [6] greater than 25000 nM.
In the case of `COc1cc(-c2cn(C)c(=O)c3cnccc23)c(OC)cc1CN(C)CC(=O)NCCOCCOCCNc1cccc2c1C(=O)N(C1CCC(=O)NC1=O)C2=O` (centres unmarked) [dBRD9], the DC50 [7] is reported as greater than 10000 nM.
